system: MDA-MB-231; experiment: normalised viability (% of control), CellTiter-Blue; higher = more viable cells (about 100 = DMSO control); settings: 10 nM; incubation time: 72 h
Method in brief: (§1)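 The reported quantity is normalised viability at a single listed concentration of the series. Compound in 5 µl medium was pre-dispensed into 384-well plates and 20 µl of breast cancer cell suspension was added for 72 h. A 2 h, 37 °C CellTiter-Blue step (2.5 µl) preceded fluorescence reading at 560/590 nm, and plates were normalised to vehicle (100) and a positive kill control (0).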

SMILES | normalised viability
CC(=O)Nc1ccc(C(=O)Nc2ccccc2N)cc1 [CI-994] | 103%
Cc1ccc(C(=O)Nc2ccc(CN3CCN(C)CC3)c(C(F)(F)F)c2)cc1C#Cc1cnc2cccnn12 [Ponatinib] | 101%
CCN(CCCOc1ccc2c(Nc3cc(CC(=O)Nc4cccc(F)c4)[nH]n3)ncnc2c1)CCOP(=O)(O)O [Barasertib] | 102%
NC(=O)Nc1cc(-c2cccc(F)c2)sc1C(=O)N[C@H]1CCCNC1 [AZD 7762] | 114%

same assay, conditions: 100 nM; incubation time: 72 h

SMILES | normalised viability
Oc1nc(-c2ccc(C(F)(F)F)cc2)nc2c1CSCC2 [XAV-939] | 89.1%
N.N.[Cl][Pt][Cl] [Cisplatin] | 96.4%
CN[C@@H]1C[C@H]2O[C@@](C)([C@@H]1OC)n1c3ccccc3c3c4c(c5c6ccccc6n2c5c31)C(=O)N[C@H]4O [UCN-01] | 37%
C[C@@H](Oc1cc(-c2cnn(C3CCNCC3)c2)cnc1N)c1c(Cl)ccc(F)c1Cl [Crizotinib] | 84.7%
CC1(C)NC(=O)N(c2ccc([N+](=O)[O-])c(C(F)(F)F)c2)C1=O [Nilutamide] | 106%
NCC(=O)CCC(=O)O [Aminolevulinic acid] | 110%

system: SK-BR-3; experiment: as above; settings: 10 nM; incubation time: 72 h
Method in brief: as §1

SMILES | normalised viability
CC(=O)Nc1ccc(C(=O)Nc2ccccc2N)cc1 [CI-994] | 78.2%
Cc1ccc(C(=O)Nc2ccc(CN3CCN(C)CC3)c(C(F)(F)F)c2)cc1C#Cc1cnc2cccnn12 [Ponatinib] | 78%
CCN(CCCOc1ccc2c(Nc3cc(CC(=O)Nc4cccc(F)c4)[nH]n3)ncnc2c1)CCOP(=O)(O)O [Barasertib] | 68.3%
NC(=O)Nc1cc(-c2cccc(F)c2)sc1C(=O)N[C@H]1CCCNC1 [AZD 7762] | 97.6%

same assay, conditions: 100 nM; incubation time: 72 h

SMILES | normalised viability
Oc1nc(-c2ccc(C(F)(F)F)cc2)nc2c1CSCC2 [XAV-939] | 112%
N.N.[Cl][Pt][Cl] [Cisplatin] | 90.5%
CN[C@@H]1C[C@H]2O[C@@](C)([C@@H]1OC)n1c3ccccc3c3c4c(c5c6ccccc6n2c5c31)C(=O)N[C@H]4O [UCN-01] | 44.2%
C[C@@H](Oc1cc(-c2cnn(C3CCNCC3)c2)cnc1N)c1c(Cl)ccc(F)c1Cl [Crizotinib] | 59.1%
CC1(C)NC(=O)N(c2ccc([N+](=O)[O-])c(C(F)(F)F)c2)C1=O [Nilutamide] | 95.4%
NCC(=O)CCC(=O)O [Aminolevulinic acid] | 99%

system: Hs578T; experiment: as above; settings: 10 nM; incubation time: 72 h
Method in brief: as §1

SMILES | normalised viability
CC(=O)Nc1ccc(C(=O)Nc2ccccc2N)cc1 [CI-994] | 97.8%
Cc1ccc(C(=O)Nc2ccc(CN3CCN(C)CC3)c(C(F)(F)F)c2)cc1C#Cc1cnc2cccnn12 [Ponatinib] | 99.6%
CCN(CCCOc1ccc2c(Nc3cc(CC(=O)Nc4cccc(F)c4)[nH]n3)ncnc2c1)CCOP(=O)(O)O [Barasertib] | 87.9%
NC(=O)Nc1cc(-c2cccc(F)c2)sc1C(=O)N[C@H]1CCCNC1 [AZD 7762] | 104%

same assay, conditions: 100 nM; incubation time: 72 h

SMILES | normalised viability
Oc1nc(-c2ccc(C(F)(F)F)cc2)nc2c1CSCC2 [XAV-939] | 88.3%
N.N.[Cl][Pt][Cl] [Cisplatin] | 106%
CN[C@@H]1C[C@H]2O[C@@](C)([C@@H]1OC)n1c3ccccc3c3c4c(c5c6ccccc6n2c5c31)C(=O)N[C@H]4O [UCN-01] | 14.4%
C[C@@H](Oc1cc(-c2cnn(C3CCNCC3)c2)cnc1N)c1c(Cl)ccc(F)c1Cl [Crizotinib] | 64.8%
CC1(C)NC(=O)N(c2ccc([N+](=O)[O-])c(C(F)(F)F)c2)C1=O [Nilutamide] | 111%
NCC(=O)CCC(=O)O [Aminolevulinic acid] | 101%

system: HCC1937; experiment: as above; settings: 10 nM; incubation time: 72 h
Method in brief: as §1

SMILES | normalised viability
CC(=O)Nc1ccc(C(=O)Nc2ccccc2N)cc1 [CI-994] | 108%
Cc1ccc(C(=O)Nc2ccc(CN3CCN(C)CC3)c(C(F)(F)F)c2)cc1C#Cc1cnc2cccnn12 [Ponatinib] | 91.6%
CCN(CCCOc1ccc2c(Nc3cc(CC(=O)Nc4cccc(F)c4)[nH]n3)ncnc2c1)CCOP(=O)(O)O [Barasertib] | 101%
NC(=O)Nc1cc(-c2cccc(F)c2)sc1C(=O)N[C@H]1CCCNC1 [AZD 7762] | 105%

same assay, conditions: 100 nM; incubation time: 72 h

SMILES | normalised viability
Oc1nc(-c2ccc(C(F)(F)F)cc2)nc2c1CSCC2 [XAV-939] | 101%
N.N.[Cl][Pt][Cl] [Cisplatin] | 95.1%
CN[C@@H]1C[C@H]2O[C@@](C)([C@@H]1OC)n1c3ccccc3c3c4c(c5c6ccccc6n2c5c31)C(=O)N[C@H]4O [UCN-01] | 42%
C[C@@H](Oc1cc(-c2cnn(C3CCNCC3)c2)cnc1N)c1c(Cl)ccc(F)c1Cl [Crizotinib] | 102%
CC1(C)NC(=O)N(c2ccc([N+](=O)[O-])c(C(F)(F)F)c2)C1=O [Nilutamide] | 99.7%
NCC(=O)CCC(=O)O [Aminolevulinic acid] | 91%
